Source: ChEMBL document CHEMBL5096195, “Recent research and development of NDM-1 inhibitors” (Eur J Med Chem, 2021)
In brackets after ≈: the same amount, converted by molar mass. Where a SMILES comes first, the peptide text is derived from it. [ ]: non-standard residue; d: D form. The star is where a group is joined. NODAGA = O=C(O)CN1CCN(CC(=O)O)CCN(C(CCC(=O)*)C(=O)O)CC1; NMeA = CN[CH](C)C(=O)O

Tests used:
[1] = tested on: Citrobacter freundii; assay: Antibacterial activity against Citrobacter freundii expressing NDM-1 assessed as decrease in meropenem MIC at 4 mg/L incubated for 18 to 20 hrs by broth microdilution method; assay type: functional; details: time 18-20 hrs
[2] = tested on: Citrobacter freundii; assay: Antibacterial activity against Citrobacter freundii expressing NDM-1 assessed as decrease in meropenem MIC at 8 mg/L incubated for 18 to 20 hrs by broth microdilution method; assay type: functional; details: time 18-20 hrs
[3] = tested on: Escherichia coli; assay: Antibacterial activity against Escherichia coli expressing NDM-1 assessed as decrease in meropenem MIC at 4 mg/L incubated for 18 to 20 hrs by broth microdilution method; assay type: functional; details: time 18-20 hrs
[4] = Inhibition of NDM-1 (unknown origin) using nitrocefin as substrate; design: species or system Homo sapiens
[5] = Inhibition of NDM-1 (unknown origin) expressed in Escherichia coli; design: species or system Homo sapiens
[6] = Inhibition of NDM-1 (unknown origin) measured after 10 mins; design: species or system Homo sapiens
[7] = tested on: Escherichia coli; assay: Antibacterial activity against Escherichia coli measured after 18 hrs; assay type: functional
[8] = tested on: Klebsiella pneumoniae; assay: Synergistic antibacterial activity against carbapenem-resistant Klebsiella pneumoniae expressing NDM-1 measured after 18 hrs in the presence of meropenem; assay type: functional
[9] = Binding affinity to NDM-1 (unknown origin) assessed as inhibition constant using cefazolin as substrate incubated for 5 mins measured for every 1 sec by isothermal titration calorimetric analysis; design: species or system Homo sapiens
[10] = tested on: L929; assay: Cytotoxicity against mouse L929 cells at 250 uM incubated for 48 hrs by MTT assay relative to control; assay type: toxicity, cell-based; details: l929, 48 h
[11] = tested on: Escherichia coli; assay: Synergistic antibacterial activity against Escherichia coli BL21 (DE3) expressing NDM-1 incubated for 12 hrs in the presence of cefuroxime sodium by two-fold checkerboard microdilution method; assay type: functional
[12] = Inhibition of NDM-1 (unknown origin) by HPLC analysis; design: species or system Homo sapiens
[13] = Inhibition of NDM-1 (unknown origin) using cefazolin as substrate incubated for 12 hrs by Agilent UV8453 UV-Vis spectrometric analysis; design: species or system Homo sapiens
[14] = organism: Homo sapiens; assay: Inhibition of NDM-1 (unknown origin) at 16 uM using cefazolin as substrate incubated for 12 hrs by Agilent UV8453 UV-Vis spectrometric analysis relative to control
[15] = Binding affinity to NDM-1 (unknown origin) assessed as kinetic constant using cefazolin as substrate preincubated for 60 sec followed by cefazolin addition after 60 sec by isothermal titration calorimetric assay; design: species or system Homo sapiens
[16] = Inhibition of NDM-1 (unknown origin); design: species or system Homo sapiens
[17] = Inhibition of NDM-1 (unknown origin) using meropenem as substrate incubated for 10 mins; design: species or system Homo sapiens
[18] = Binding affinity to NDM-1 (unknown origin) assessed as inhibition constant using meropenem as substrate incubated for 10 mins; design: species or system Homo sapiens
[19] = Inhibition of NDM-1 (unknown origin) using cefuroxime sodium as substrate incubated for 5 mins by UV-1800 spectrophotometric analysis; design: species or system Homo sapiens
[20] = Inhibition of NDM-1 (unknown origin) expressed in Escherichia coli Zc-YN3
[21] = Inhibition of NDM-1 (unknown origin) by using nitrocefin as substrate preincubated for 10 min followed by nitrocefin addition incubated after 30 min; design: species or system Homo sapiens
[22] = Oral bioavailability in BALB/c mouse relative to control; assay type: ADME, organism-based; details: in vivo

For c1ccc(CN(CCN(Cc2ccccn2)Cc2ccccn2)Cc2ccccn2)nc1, the MIC [1] was 0.5 µg/mL and the MIC [2] was 0.06 µg/mL.

With O=C(O)CN1CCN(CC(=O)O)CCN(CC(=O)O)CC1 the MIC [3] was 0.125 µg/mL.

N[C@@H](CN[C@@H](CN[C@@H](CC(=O)O)C(=O)O)C(=O)O)C(=O)O gave an IC50 [4] of 4 µM.

For O=C(O)[C@@H]1SC[C@H]2CS[C@H](CS)N21, the IC50 [5] was 23 µM.

O=C(O)[C@H]1SC[C@@H]2CS[C@@H](CS)N21 showed an IC50 [5] of 109 µM.

Compound CC1(C)S[C@@H]2CS[C@@H](CS)N2[C@H]1C(=O)O has an IC50 [5] of 180 µM.

With O=C1N(Cc2cccc3ccccc23)c2ccccc2C12NN=C(c1ccccc1)S2 (configuration not stated) the IC50 [6] was 6.6 µM, the MIC [7] was 4 µM (≈ 1.69 µg/mL) and the MIC [8] was 2 µM.

With CC1(C)S[C@H]2CS[C@H](CS)N2[C@@H]1C(=O)O the IC50 [5] was 200 µM.

O=C(NNC(=S)S)c1ccccc1O gave a Ki [9] of 0.29 µM.

In the case of O=C(NNC(=S)[S][K])c1ccccc1O, the Activity [10] is reported as > 80%.

For CC(C(=O)NC(Cc1ccccc1)C(=O)N(C)C(C)C(=O)NC(Cc1ccccc1)C(N)=O)N(C)C(=O)CCC(C(=O)O)N1CCN(CC(=O)O)CCN(CC(=O)O)CC1 (configuration not stated) ({NODAGA}-[NMeA]F[NMeA]F-NH2; configuration not given here), the MIC [3] was 0.125 µg/mL.

With CC1(C)S[C@@H]2[C@H](NC(=O)[C@H](N)c3ccccc3)C(=O)N2[C@H]1C(=O)O [AMPICILLIN] the MIC [11] was 32 µM.

O=C(O)[C@H]1O[C@@H](Oc2cc3oc(-c4ccccc4)cc(=O)c3c(O)c2O)[C@H](O)[C@@H](O)[C@@H]1O [BAICALIN] showed an IC50 [12] of 3.89 µM.

For O=C(O)C(=O)CBr [BROMOPYRUVATE], the IC50 [13] was 2.57 µM, the inhibition [14] was > 90% and the Ki [15] was 3.8 µM.

For O=C(O)CN(CCN(CC(=O)O)CC(=O)O)CC(=O)O [EDETIC ACID], the IC50 [16] was 1.6 µM.

With CCCCCCCCCCCC1=C(O)C(=O)C=C(O)C1=O [EMBELIN] the IC50 [17] was 2.1 µM and the Ki [18] was 0.19 µM.

Compound COc1ccc([C@@H]2CC(=O)c3c(O)cc(O[C@@H]4O[C@H](CO[C@@H]5O[C@@H](C)[C@H](O)[C@@H](O)[C@H]5O)[C@@H](O)[C@H](O)[C@H]4O)cc3O2)cc1O [HESPERIDIN] has an IC50 [19] of 3.35 µM.

C=CCc1ccc(O)c(-c2cc(CC=C)ccc2O)c1 [MAGNOLOL] gave an IC50 [20] of 6.47 µM.

With COC(=O)C[C@H]1[C@]2(C)C3=C(C)[C@H](c4ccoc4)C[C@H]3O[C@@H]2[C@@H]2OC(=O)[C@]3(C)C=CC(=O)[C@@]1(C)[C@@H]23 [NIMBOLIDE] the IC50 [16] was 1.34 µM.

COc1cc(/C=C/c2ccc(O)cc2)cc(OC)c1 [PTEROSTILBENE] gave an IC50 [21] of 15.37 µg/mL (≈ 60 µM) and a bioavailability [22] of 80%.
